The results in this text go back to PubChem BioAssay (NCI).

Holding throughout (assay): inhibition of tumour cell growth, NCI panel, 48 h
Test [1] concerns A549 NSCLC.
Test [2] relates to HCC-2998 colon.
The subject of test [3] is IGROV1 ovarian.
Test [4] deals with KM12 colon.
The test system of test [5] is M14 melanoma.
Test [6] deals with OVCAR-5 ovarian.
Test [7] concerns PC-3 prostate.
The subject of test [8] is SK-MEL-5 melanoma.
The test system of test [9] is SW-620 colon.
Test [10] concerns MOLT-4 leukemia.

Each structure is given as a SMILES string.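 Each compound was tested at five concentrations against cells in 96-well plates for 48 hours. The concentration for 50% growth inhibition is given as GI50. TGI: total growth inhibition.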 Some results are limits rather than exact numbers.

Take `O=C(O)c1n[nH]nc1Cl`: the TGI in test [1], in test [2], in [3], in [4], in [5] and in test [6] was over 100 µM each time. In addition, the TGI in test [7], in test [8] and in test [9] was over 100 µM in each case.

On to `CC(=O)n1nc(-c2ccccc2)n(/N=C/c2ccc([N+](=O)[O-])cc2)c1=O`, for which the TGI in [1], in [2], in test [3], in test [4], in test [5] and in test [10] was over 100 µM throughout. Besides, the TGI in [6], in test [7], in test [8] and in test [9] was over 100 µM throughout.

As to `O=[N+]([O-])c1cc2oc(COc3ccccc3)nc2cc1Cl`, the TGI is over 100 µM in [1]; 43.3 µM in test [2]; over 100 µM in test [3]; 51.3 µM in test [4]; 43.5 µM in test [5]; over 100 µM in test [10]. Also, the TGI in test [6] was over 100 µM; in test [7], over 100 µM; in [8], 25.5 µM; in test [9] it was over 100 µM.

For the molecule `CC(C)(C)c1cc(C(P(=O)(c2ccccc2)c2ccccc2)P(=O)(c2ccccc2)c2ccccc2)cc(C(C)(C)C)c1O`, the TGI is over 8.98 µM in test [1]; 4.45 µM in test [2]; 5.74 µM in test [3]; 3.37 µM in test [4]; 3.84 µM in test [5]; over 8.09 µM in [10]. Further, the TGI was over 6.72 µM in test [6], 7.67 µM in test [7], 2.94 µM in [8] and over 9.23 µM in [9].

Consider `COc1ccc(N=C2SC(=N/N=c3\sc4ccccc4n3C)SC2=Nc2ccc(OC)cc2)cc1`, for which the TGI in [1], in [2], in test [3], in test [4], in test [5] and in test [10] was over 100 µM throughout. Besides, the TGI in [6], in test [7], in test [8] and in test [9] was over 100 µM throughout.

On to `CC(C)(C)C(=O)OCC1CCC[N+]2(C)CCCCC12` (stereo unspecified), for which the TGI in test [1], in [2], in [3], in test [4], in [5] and in test [10] was over 100 µM in each case. The TGI in test [6], in test [7], in test [8] and in test [9] was over 100 µM in each case.

With `Oc1ccc2ccccc2c1/C=C/c1ccc2c(Br)cc(Br)c(O)c2n1`, the TGI in test [1] turned out to be 20.5 µM; in test [2], 23.4 µM; in test [3], 32.5 µM; in test [4] it was 30.9 µM; in test [5] it was 26.5 µM; in [10], 15.4 µM. The TGI in test [6] was 21.7 µM; in test [7], 18.9 µM; in test [8] it was 14.5 µM; in [9], 25.1 µM.

On to `COc1cc(/C=C2\CCC(C)C3C2=NN(C(C)=O)C3c2cc(OC)c(OC)c(OC)c2)cc(OC)c1OC` (stereo unspecified), for which the TGI in test [1] was over 100 µM; in test [2], over 100 µM; in [3], 9.7 µM; in test [4], over 100 µM; in [5], over 100 µM; in [10] it was over 100 µM. The TGI in test [6] is over 36.3 µM; in [7], over 100 µM; in [8], over 100 µM; in test [9], over 100 µM.

For `COc1ccc(C2CC(=O)CC(c3ccc(OC)cc3)C23C(=O)NC(=O)NC3=O)cc1` (stereo unspecified), the TGI in test [2] is 45.7 µM; in test [3] it was 80 µM; in test [4], 72.9 µM; in test [5], over 100 µM; in test [10], 64.8 µM; in [6], over 100 µM. The TGI in test [7] is over 100 µM; in test [8] it was 68 µM; in [9], 50.2 µM.

Take `CCC(C)(C)/C(CC(O)(C(F)(F)F)C(F)(F)F)=N\O`: the TGI in test [1], in test [2], in test [3], in test [4], in test [5] and in test [10] was over 100 µM throughout. Besides, the TGI in test [6], in test [7], in [8] and in [9] was over 100 µM throughout.

For the molecule `CN(c1ccc(Cl)cc1)S(=O)(=O)c1cccc([N+](=O)[O-])c1`, the TGI in [1], in test [2], in test [3], in test [4], in test [5] and in test [10] was over 100 µM each time. Besides, the TGI in [6] is over 100 µM; in [7], over 100 µM; in test [8], 72.8 µM; in [9] it was over 100 µM.

As for `Cc1ccc(S(=O)(=O)N/N=C/C(=C/c2ccc(Cl)cc2)CC(/C=N/NS(=O)(=O)c2ccc(C)cc2)=C\c2ccc(Cl)cc2)cc1`, the TGI in test [1] is over 100 µM; in test [2], 8.98 µM; in test [3], 35.7 µM; in test [4] it was 47.2 µM; in test [5] it was 48.1 µM; in test [10], 6.62 µM. The TGI in test [6] was 35.5 µM; in test [7], 24 µM; in test [8], 13.9 µM; in test [9], 27.6 µM.

Turning to `Cc1cc2nc3c(C#N)c(-c4ccccc4)cc(Nc4ccc(Cl)cc4)n3c2cc1C`, the TGI in [1], in test [2], in [4], in [5], in [6] and in test [7] was over 100 µM throughout. In addition, the TGI in test [8] and in test [9] was over 100 µM throughout.

Take `CN(c1ccc(Cl)cc1)S(=O)(=O)c1ccc([N+](=O)[O-])cc1`: the TGI in [1], in test [2], in test [3], in test [4], in test [5] and in test [10] was over 100 µM throughout. The TGI in [6], in test [7], in [8] and in [9] was over 100 µM throughout.

As for `N#CSC#Cc1ccc(C#CSC#N)cc1`, the TGI in test [1] was 33.7 µM; in test [2] it was 34.3 µM; in [3], 30.5 µM; in [4], 36.8 µM; in [10] it was over 100 µM; in test [6] it was 34.9 µM. Further, the figures for the TGI in test [7], in test [8] and in [9] were 29.5 µM, 33.2 µM and 44.1 µM, respectively.

In the case of `O/N=C1/COC(C(F)(F)F)(C(F)(F)F)C1`, the TGI in [1], in test [2], in [3], in test [4], in test [5] and in test [10] was over 100 µM in each case. For the same molecule, the TGI in test [6], in [7], in test [8] and in test [9] was over 100 µM each time.

Take `CCc1nc(N)nc(N)c1-c1ccc(Cl)c(Cl)c1`: the TGI in test [1], in [2], in [3], in test [4], in test [5] and in test [6] was over 100 µM throughout. Also, the TGI in test [7], in test [8] and in test [9] was over 100 µM throughout.

Take `CC(C)C1OC23CCCCC2C(C#N)(C#N)C1(C#N)C(=N)O3` (stereo unspecified): the TGI in [1] is over 100 µM; in [2] it was 29.6 µM; in [5] it was 29.8 µM; in test [10], over 100 µM; in [6] it was 47.5 µM; in test [7], over 100 µM. Also, the figures for the TGI in [8] and in [9] were 35.7 µM and 99.3 µM, respectively.

Take `Cc1cccc(-c2nc3ccc([N+](=O)[O-])cc3c(=O)o2)c1`: the TGI in test [1], in test [2], in test [3], in test [4], in [10] and in test [6] was over 100 µM each time. Also, the TGI in test [7], in test [8] and in test [9] was over 100 µM in each case.

With `CC(=O)OCCn1cnc2nc(Nc3ccccc3)nc(Cl)c21`, the TGI in test [1], in test [2], in [3], in [4], in test [10] and in [6] was over 100 µM in each case. For the same molecule, the TGI in [7], in test [8] and in test [9] was over 100 µM throughout.

`Cc1nc(N)sc1-c1ccnc(Nc2ccc(N3CCOCC3)cc2)n1`: the GI50 was 1.13 µM in test [1]; 11.8 µM in test [2]; 0.846 µM in test [3]; 1.59 µM in [4]; 2.66 µM in test [5]; 0.497 µM in test [10]. For the same molecule, the results for the GI50 in test [7], in test [8] and in test [9] were 1.81 µM, 5.05 µM and 1.41 µM, respectively. Further, the TGI in [1] is over 100 µM; in [2], over 100 µM; in [3] it was over 33.7 µM; in test [4] it was over 100 µM; in [5], over 100 µM; in [10] it was over 56.1 µM. For the same molecule, the TGI in [7] is over 100 µM; in [8], over 100 µM; in test [9], 24.9 µM.

Take `O=C(CC(=O)Nc1cccc(C(=O)O)c1)Nc1cccc(C(=O)O)c1`: the TGI in test [1], in test [2], in test [3], in test [4], in [5] and in test [10] was over 100 µM throughout. Further, the TGI in [7], in [8] and in [9] was over 100 µM in each case.

With `COc1ccc2nc3ccc(OC)cc3c(S(=O)CCCl)c2c1` (stereo unspecified), the TGI is 48 µM in test [1]; 46.7 µM in [2]; 6.87 µM in test [3]; 37.3 µM in [4]; 15.3 µM in test [5]; over 20.7 µM in test [10]. Besides, the TGI in test [6] was 34.5 µM; in test [7], 23.4 µM; in [8], 28.2 µM.

On to `Cc1ccc2c(n1)C(=O)c1[nH]c3ccccc3c1C2=O`, for which the GI50 in test [1] is 1.61 µM; in test [2], 1.88 µM; in [3], 0.0819 µM; in [4], 3.1 µM; in test [10], 3.25 µM; in test [6] it was 2.11 µM. In addition, the GI50 was 1.63 µM in test [7], 0.212 µM in test [8] and 2.97 µM in test [9]. Also, the TGI in [1] was determined as 4.37 µM; in [2], 6.37 µM; in [3] it was 4.3 µM; in test [4] it was 19.6 µM; in test [10], 18.9 µM; in [6], 4.54 µM. The TGI in test [7] is over 100 µM; in test [8] it was 0.583 µM; in [9] it was over 100 µM.

Regarding `CCCCCN=Cc1c(O)c(O)c(C(C)C)c2cc(C)c(-c3c(C)cc4c(C(C)C)c(O)c(O)c(C=NCCCCC)c4c3O)c(O)c12`, the TGI in test [1] was over 100 µM; in [2], 35.9 µM; in [3] it was 87.4 µM; in test [4], 19.8 µM; in test [5], over 100 µM; in test [6], over 100 µM. Moreover, the figures for the TGI in [7], in test [8] and in test [9] were 41.1 µM, 28.1 µM and over 100 µM, respectively.

Turning to `Clc1c(Cl)c(Cl)c2nn(C3CCCO3)nc2c1Cl` (stereo unspecified), the TGI in test [1], in test [2], in test [3], in [5], in test [10] and in test [6] was over 100 µM in each case. Besides, the TGI in test [7] and in [8] was over 100 µM throughout.
